One data set addresses T1, human EAAT3 (Homo sapiens, UniProt P43005).
T1 construct: expressed in transfected cells
T1 sequence (P43005 1-524): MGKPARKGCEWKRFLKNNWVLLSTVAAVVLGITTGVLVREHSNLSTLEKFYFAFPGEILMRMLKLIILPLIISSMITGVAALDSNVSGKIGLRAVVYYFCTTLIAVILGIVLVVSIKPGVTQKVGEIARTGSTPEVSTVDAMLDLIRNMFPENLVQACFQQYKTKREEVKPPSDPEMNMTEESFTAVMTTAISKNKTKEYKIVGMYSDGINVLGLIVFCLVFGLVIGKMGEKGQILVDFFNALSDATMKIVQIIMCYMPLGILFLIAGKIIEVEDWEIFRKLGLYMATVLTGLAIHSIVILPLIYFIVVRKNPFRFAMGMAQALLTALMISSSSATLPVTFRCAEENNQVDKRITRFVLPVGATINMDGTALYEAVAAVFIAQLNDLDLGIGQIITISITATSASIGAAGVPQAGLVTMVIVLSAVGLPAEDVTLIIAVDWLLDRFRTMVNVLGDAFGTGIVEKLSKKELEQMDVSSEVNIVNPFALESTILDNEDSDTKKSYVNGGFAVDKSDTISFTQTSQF
Kind of data set: FLIPR Membrane Potential (FMP) assay. The note with it: HEK-293 cells stably expressing human EAAT3; antagonist applied 15 min before L-glutamate at EC80; Kb by Cheng-Prusoff from IC50. In kind it is cell-based. In short, it runs like this:
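HEK-293 cells stably expressing human EAAT3, loaded with membrane-potential dye 1 h at 37 °C in Krebs buffer pH 7.4. Antagonists added 15 min before L-glutamate at EC80; peak fluorescence minus basal read on FLIPR at room temperature. Kb derived from IC50 via Cheng-Prusoff.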

Twelve compounds from patent US10577332B2, “Tetrazole derivatives” (Hoffmann-La Roche Inc., priority 2015, dated 2020) can be followed below.

The Kb is the affinity of an antagonist, worked out from how it opposes an agonist. A lower Kb goes with a more potent antagonist. The term melting point denotes the temperature of the solid-liquid transition. Consider `CC(C)(NC(=O)c1cc(-c2ccc(Cl)cc2)cc(-n2cnnn2)c1)C(F)(F)F` [Example 41, 3-(4-Chlorophenyl)-5-(tetrazol-1-yl)-N-(1,1,1-trifluoro-2-methylpropan-2-yl)-benzamide], for which the melting point came to 187 °C. At human EAAT3, this compound displayed a Kb of 0.35 µM.
With `CCC(C)(C)NC(=O)c1cc(-c2ccc(F)cc2)cc(-n2nnnc2C(C)C)c1` [Example 60, 3-(4-Fluorophenyl)-N-(2-methylbutan-2-yl)-5-(5-propan-2-yltetrazol-1-yl)-benzamide], the melting point was determined as 69 °C. The compound further registered a Kb at human EAAT3 of 0.21 µM.
For `CC(C)(C)c1nnnn1-c1cc(C(=O)NC(C)(C)C(F)(F)F)cc(-c2ccc(F)cc2)c1` [Example 96, 3-(5-tert-Butyltetrazol-1-yl)-5-(4-fluorophenyl)-N-(1,1,1-trifluoro-2-methylpropan-2-yl)-benzamide] the same measures were 224.5 °C and 0.26 µM.
`Cc1nnnn1-c1cc(C(=O)NC(C)(C)C2CC2)cc(-c2ccc(F)cc2)c1` [Example 85, N-(2-Cyclopropylpropan-2-yl)-3-(4-fluorophenyl)-5-(5-methyltetrazol-1-yl)-benzamide]: the melting point was found to be 78 °C. The Kb at human EAAT3 worked out at 0.29 µM.
`CC(C)c1nnnn1-c1cc(C(=O)NC(C)(C)C(F)(F)F)cc(-c2ccc(F)cc2)c1` [Example 59, 3-(4-Fluorophenyl)-5-(5-propan-2-yltetrazol-1-yl)-N-(1,1,1-trifluoro-2-methylpropan-2-yl)-benzamide] came in with a melting point of 80 °C. For the same compound, the Kb on human EAAT3 worked out at 0.31 µM.
On to `CC(C)(C)NC(=O)c1cc(-c2ccc(F)c(F)c2)cc(-n2nnnc2C(C)(C)C)c1` [Example 106, N-tert-Butyl-3-(5-tert-butyltetrazol-1-yl)-5-(3,4-difluorophenyl)-benzamide], for which the melting point was 225.5 °C. At human EAAT3, the Kb is 0.26 µM.
For `CC(C)(C#N)NC(=O)c1cc(-c2ccc(F)cc2)cc(-n2nnnc2C(C)(C)C)c1` [Example 100, 3-(5-tert-Butyltetrazol-1-yl)-N-(2-cyanopropan-2-yl)-5-(4-fluorophenyl)-benzamide] the same measures were 115 °C and 0.23 µM.
For `Cc1ccc(-c2cc(C(=O)NC(C)(C)C3CC3)cc(-n3nnnc3C3CC3)c2)cc1` [Example 35, N-(2-Cyclopropylpropan-2-yl)-3-(5-cyclopropyltetrazol-1-yl)-5-(4-methylphenyl)-benzamide] the same measures were 74.5 °C and 0.45 µM.
As for `Cc1ccc(-c2cc(C(=O)NC3(C)CCS(=O)(=O)C3)cc(-n3nnnc3C(C)C)c2)cc1` (racemic) [Example 17, (RS)-N-(3-methyl-1,1-dioxothiolan-3-yl)-3-(4-methylphenyl)-5-(5-propan-2-yltetrazol-1-yl)-benzamide], the melting point worked out at 112 °C. The same compound had a Kb at human EAAT3 of 0.25 µM.
`CC(C)(C)c1nnnn1-c1cc(C(=O)NC(C)(C)C(F)(F)F)cc(-c2ccc(C(F)(F)F)cc2)c1` [Example 116, 3-(5-tert-Butyltetrazol-1-yl)-5-[4-(trifluoromethyl)-phenyl]-N-(1,1,1-trifluoro-2-methylpropan-2-yl)-benzamide] registered a melting point of 108 °C. Besides, at human EAAT3, the Kb was found to be 0.55 µM.
The like results for `CCC(C)(C)NC(=O)c1cc(-c2ccc(F)cc2)cc(-n2nnnc2C(C)(C)C)c1` [Example 97, 3-(5-tert-Butyltetrazol-1-yl)-5-(4-fluorophenyl)-N-(2-methylbutan-2-yl)-benzamide] were, in that order, 199 °C and 0.12 µM.
For the compound `Cc1ccc(-c2cc(C(=O)NC(C)(C)C3CC3)cc(-n3nnnc3C(C)(C)C)c2)cc1` [Example 109, 3-(5-tert-Butyltetrazol-1-yl)-N-(2-cyclopropylpropan-2-yl)-5-(4-methylphenyl)-benzamide], the melting point turned out to be 91.5 °C. At human EAAT3, this compound returned an antagonist equilibrium constant (Kb) of 0.37 µM.
